The values that follow come from patent publication US11874276B2, “STING levels as a biomarker for cancer immunotherapy” (Dana-Farber Cancer Institute, Inc., priority 2018, dated 2024).

Common to all, as to format: cell-based, human
Assay [1] has as its system H69AR cells, SPARCS high cell lines. Kind of assay: IFN pulse-chase of SCLC and other cancer cell lines; qRT-PCR, immunoblot. How it is done:
To test drug effects on gene expression or protein secretion, IFN-γ pulsed H69AR cells were treated with DMSO, 1 μM MRT67307 or 100 nM Ruxolitinib for 24, 48 and 72 hours.
(§1) Protein was isolated from cell lines and measured by BCA (Pierce Biotechnology). Protein extracts were subjected to polyacrylamide gel electrophoresis using the 4%-12% NuPAGE gel system (Invitrogen, Carlsbad, CA), transferred to PVDF (Millipore) membranes, and immunoblotted using antibodies that specifically recognize TBK1 (#3013), S172 pTBK1 (#5483), pERK1/2 (#4370), ERK1/2 (#9107), S473 pAKT (#4060), AKT (#9272), S396 pIRF3 (#4947), IRF3 (#4302), Y701 pSTAT1 (#9171), STAT1 (#9172), AXL (#8661), EZH2 (#5246), STING (#13647), MAVS (#3993), E-Cadherin (#3195), Vimentin (#5741), β-Actin (#4970), Tubulin (#2144) (Cell Signaling Technologies, Danvers, MA) and IKKε (#14907) (Sigma-Aldrich, St. Louis, MO).
(§2) Total cellular RNA was extracted using the miRNeasy Mini Kit (Qiagen, Hilden, Germany) according to manufacturer's instructions. After extraction, 1 μg total RNA was used to generate cDNA with the SuperScript III First-Strand Synthesis SuperMix for qRT-PCR kit (Thermo Fisher Scientific, Waltham, MA). Quantitative reverse transcription PCR (qRT-PCR) of the indicated genes was performed using SYBR green PCR Master Mix (Applied Biosystems, Foster City, CA) and the Applied Biosystems 7300 Fast real-time PCR system and software. The relative expression was normalized with the expression of the housekeeping gene 36B4.

Assay [2] has as its system H69 cells. The experiment in a line: EZH2 inhibition of H69 cells followed by IFNγ exposure; SPARCS qRT-PCR and cytokine profiling. Conditions: for reactivation / de-repression of SPARCS ERVs: 5 μM for 6 days, then IFNγ 24 h. How it is done:
For EZH2 inhibition experiments, H69 cells were treated with 5 μM GSK126 for 6 days. Drug was replenished every 3 days with both suspension and adherent cells carried each time. After the GSK126 treatment period, equal numbers of DMSO-treated and GSK126-treated cells were exposed to either H2O or 200 ng/mL IFN-γ for 24 hours before harvesting of RNA or conditioned media (CM).
(§3) Multiplex assays were performed utilizing the bead-based immunoassay approach Bio-Plex Pro™ Human Cytokine 40-plex Assay (Cat #171AK99MR2) on a Bio-plex 200 system (Cat #171000201) (Bio-Rad Laboratories, Hercules, CA) and the Human Cytokine/Chemokine Maganetic Bead Panel (Cat #HCYTMAG-60K-PX30) on a Luminex MAGPIX system (Merck Millipore, Billerica, MA). Conditioned media concentration levels [pg/ml] of each protein were derived from 5-parameter curve fitting models. Fold changes relative to the corresponding control were calculated and plotted as log 2FC. Lower and upper limits of quantitation (LLOQ/ULOQ) were imputed from standard curves for cytokines above or below detection.
as §2

Assay [3] concerns H69 cells. The experiment in a line: Immunoblot of STING in H69 cells after GSK126 treatment.
Text: Immunoblot of STING, histone H3K27me3 and β-actin levels in H69 cells after GSK126 (EZH2 inhibitor) treatment at the indicated concentrations and for the indicated number of days.
as §1
(Immunoblotting shows a protein as a band on a membrane.)

A further assay has as its system TNBC cell lines. The experiment in a line: CXCL10 secretion by TNBC cell lines treated with STING agonist. Conditions: all TNBC cell lines, relative to a control. How it is done:
TNBC cell lines were also assayed for their responsiveness to the STING agonist AduroS100. Cells were treated with AduroS100 or a control and CXCL10 levels secreted into the supernatant were measured.

A further assay relates to NSCLC PDOTS. The experiment in a line: Ex vivo culture of patient-derived organotypic tumor spheroids (PDOTS); cytokine profiling and viability. The conditions noted are these: in contrast to NSCLC-2; for production of multiple cytokines/chemokines, especially CXCL10: NSCLC-1 PDOTS (SPARCS high features); for sensitization to ex vivo PD-1 blockade with nivolumab: NSCLC-1 PDOTS, viability Day 6.
Text: PDOTS from human NSCLC resection specimens were generating according to the recent publication^21. Briefly, fresh tumor specimens were minced and resuspended in media with collagenase type IV (Life Technologies, Carlsbad, CA). After digestion, samples were strained over 100 μm filter and 40 μm filters to generate S1 (>100 μm), S2 (40-100 μm), and S3 (<40 μm) spheroid fractions. S2 spheroid fraction was pelleted and resuspended in type I rat tail collagen (Corning, Corning, NY) at a concentration of 2.5 mg/mL. The spheroid-collagen mixture was then injected into the center gel region of the 3D microfluidic culture device. Collagen hydrogels containing PDOTS were hydrated with media and treated with anti-PD-1 (Nivolumab, 100 μg/mL), IFNγ (200 ng/mL), Poly (I:C) (0.5 μg/mL) or combination (Nivolumab+IFNγ Nivolumab+Poly (I:C)). The number of Live/Dead cells in each treatment condition was determined by Trypan Blue Exclusion method and plotted as percentage of viability.
as §3

Assay [4] concerns H69AR cells. The experiment in a line: Poly(I:C) transfection of H69AR cells; qRT-PCR. The conditions noted are these: 72 h following transfection. How it is done: as §2
For Poly(I:C) dsRNA treatment experiments, H69ARsgCTRL and H69ARsgMAVS cells were plated in RPMI media, transfected with 0.5 μg/mL Poly(I:C) HMW (InvivoGen, Sand Diego, CA) using XtremeGene HP transfection reagent (Sigma-Aldrich, St. Louis, MO) and cultured for 72 hours. On day 3 after transfection, conditioned media was recovered and CXCL10 protein expression was quantified using Human CXCL10/IP-10 Quantikine ELISA kit (R&D Systems, Minneapolis, MN). RNA was extracted and expression levels of relevant genes were analyzed by qRT-PCR.
A general note: Real-time PCR tracks product formation cycle by cycle.

Assay [5] concerns H69AR cells. The experiment in a line: IFNγ pulsed H69AR cells chased in media with drug; pSTAT1 immunoblot, CXCL10/ERV qRT-PCR, CXCL10 ELISA. Conditions: 10 min IFNγ pulse, 24 h chase, 1 μM. How it is done: For IFN pulse experiments, cells were pulsed 10 minutes with IFN-γ 200 ng/mL or 10 ng/mL), IFN-α 10 000 U/mL), or IFN-β 10 000 U/mL), extensively washed, and chased in fresh media for an additional 24, 48 or 72 hours. To test drug effects on gene expression or protein secretion, IFN-γ pulsed H69AR cells were treated with DMSO, 1 μM MRT67307 or 100 nM Ruxolitinib for 24, 48 and 72 hours. Proteome Profiler™ Human Cytokine Array Kit (#ARY005B) and CXCL10 ELISA (#DIP100) (R&D Systems, Minneapolis, MN), were performed according to manufacturer's instructions. For cytokine array, conditioned media (CM) from SCLC cells at basal conditions was collected after 48 and 72 hours. For CXCL10 ELISA, CM from IFN-γ pulsed cells was collected after 72 hours. Total cellular RNA was extracted using the miRNeasy Mini Kit (Qiagen, Hilden, Germany) according to manufacturer's instructions. After extraction, 1 μg total RNA was used to generate cDNA with the SuperScript III First-Strand Synthesis SuperMix for qRT-PCR kit (Thermo Fisher Scientific, Waltham, MA). Quantitative reverse transcription PCR (qRT-PCR) of the indicated genes was performed using SYBR green PCR Master Mix (Applied Biosystems, Foster City, CA) and the Applied Biosystems 7300 Fast real-time PCR system and software. The relative expression was normalized with the expression of the housekeeping gene 36B4.

The subject of the next assay is A549 cells. The experiment in a line: Immunoblot of STING in KL cell lines with LKB1 reconstitution with or without DNMT inhibitor. The conditions noted are these: A549 cells (KL DNMT high) with LKB1 reconstitution. How it is done:
FIGS. 16A to 16C. FIG. 16A: Immunoblot of the indicated proteins in KL cell lines transduced with the indicated vector. FIG. 16B: Correlation between STING and DNMT1 expression in KL cell lines. FIG. 16C: Immunoblot of the indicated proteins in KL cell lines transduced with the indicated vector with or without 100 nM 5-aza-2′-deoxycytidine (DAC) treatment for 7 days.

“Also recorded” adds a separate entry of the source.

IFNα: the “SPARCS upregulation (MLT1C49, MLT1A)” value in assay [1] (H69AR cells, 10 min pulse with chase) is “SPARCS upregulation”.
For the molecule `CC[C@H](C)n1cc(C)c2c(C(=O)NCc3c(C)cc(C)[nH]c3=O)cc(-c3ccc(N4CCNCC4)nc3)cc21` [GSK126], the “reactivation / de-repression of SPARCS ERVs” value in the assay with H69 cells [2] was “induced their reactivation”; in the assay with H69 cells [2] (listed as EZH2 inhibitor) it was “de-repressed the same SPARCS as in H69AR cells”. Moreover, in the assay with H69 cells [2] (treatment over 6 days), the “IFNγ induced cytokine secretion” value was “enhanced”. Also, the STING protein expression result with H69 cells [3] was “induces STING protein expression”.
Take `Nc1ncnc2c1ncn2[C@@H]1O[C@@H]2COP(O)(=S)O[C@@H]3C(O)[C@@H](COP(O)(=S)O[C@H]2[C@H]1O)O[C@H]3n1cnc2c(N)ncnc21` (some centres unmarked) [AduroS100]: the “CXCL10 levels secreted into the supernatant” value in the assay on TNBC cell lines is “elevated levels; also recorded: increased CXCL10 production”.
Consider Poly(I:C), for which, in the assay on NSCLC PDOTS, the “production of multiple cytokines/chemokines, especially CXCL10” value is “markedly enhanced; also recorded: markedly enhances CXCL10 production” and the “sensitization to ex vivo PD-1 blockade with nivolumab” value is “sensitized; also recorded: sensitizes them to PD-1 blockade”. In addition, in the assay with H69AR cells [4], the SPARCS upregulation entry is listed as “SPARCS upregulation” and the “induction of type I/II IFNs” value is “Induction of type I/II IFNs was also confirmed”.
Regarding `O=C(NCCCNc1nc(Nc2cccc(CN3CCOCC3)c2)ncc1C1CC1)C1CCC1` [MRT67307], the “effect on downstream CXCL10 expression” value with H69AR cells [5] was “partially inhibited”.
`Nc1ncn([C@H]2C[C@H](O)[C@@H](CO)O2)c(=O)n1` [DNMT inhibitor, 5-aza-2′-deoxycytidine]: the STING expression result with A549 cells is listed as “able to restore STING expression”.

B1: IFNγ: Recombinant human IFN-γ protein from R&D Systems (protein, UniProt P01579 24-161, looked up)
Interferon gamma: QDPYVKEAENLKKYFNAGHSDVADNGTLFLGILKNWKEESDRKIMQSQIVSFYFKLFKNFKDDQSIQKSVETIKEDMNVKFFNSNKKKRDDFEKLTNYSVTDLNVQRKAIHELIQVMAELSPAAKTGKRKRSQMLFRG
Regarding B1, in the assay on NSCLC PDOTS, the “production of multiple cytokines/chemokines, especially CXCL10” value is “markedly enhanced” and the “sensitization to ex vivo PD-1 blockade with nivolumab” value is reported as “sensitized”. In assay [1] (H69AR but not H69 cells, pulse treatment), the “pTBK1, pIRF3 and pSTAT1 activation” value is “hyperactivated and sustained”. Moreover, in assay [1] (H69AR cells, 10 minute pulse), the “induction of TRIM22 and MLT1C49” value was “marked induction”. In addition, in assay [1] (SPARCS high cells relative to SPARCS low cells, pulse treatment), the “MLT1C49, CXCL10 and PD-L1 expression” value is reported as “significantly induced”.
